These results are taken from PubChem BioAssay (NCI).

Among the test systems are A498 renal; BT-549 breast; HCT-15 colon; K-562 leukemia; OVCAR-8 ovarian; SK-MEL-28 melanoma; UACC-257 melanoma; UACC-62 melanoma.
Test in all cases: NCI anticancer screen, dose series, 48 h

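Exposure lasted 48 hours, with cells grown in 96-well plates and compounds tested at five concentrations. GI50 is the concentration that inhibits growth by half. TGI: total growth inhibition.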

Consider `CC1=C2[C@@H](CC1)[C@]1(C)O[C@@](C(C)C)(C[C@H]1OC(=O)CO)[C@H]2OC(=O)C1CC1c1ccccc1` (some centres undefined), for which the GI50 in the assay with A498 renal was 0.24 µM; in the assay on BT-549 breast, 13.6 µM; with HCT-15 colon, 13 µM; in the assay with K-562 leukemia, 12.2 µM; in the assay with OVCAR-8 ovarian, 12.9 µM; in the assay on SK-MEL-28 melanoma, 16.8 µM. The GI50 in the assay on UACC-257 melanoma was 17.3 µM; in the assay with UACC-62 melanoma it was 10.9 µM. The TGI in the assay on A498 renal is 0.943 µM; with BT-549 breast, 28.7 µM; in the assay on HCT-15 colon it was 27.6 µM; in the assay with K-562 leukemia, 36.5 µM; with OVCAR-8 ovarian, 35.6 µM; in the assay with SK-MEL-28 melanoma, 34.6 µM. The TGI in the assay with UACC-257 melanoma stood at 32.4 µM; with UACC-62 melanoma, 25.6 µM.

With `COc1ccc2c(c1)c(-c1nc(-c3c[nH]c4ccncc34)cs1)cn2C`, the GI50 with A498 renal was 1.65 µM; in the assay on BT-549 breast, 1.81 µM; in the assay on HCT-15 colon, 1.25 µM; with K-562 leukemia it was 0.716 µM; in the assay on OVCAR-8 ovarian, 1.99 µM; with SK-MEL-28 melanoma it was 1.63 µM. Besides, the GI50 with UACC-257 melanoma was 1.68 µM; in the assay with UACC-62 melanoma it was 1.82 µM. Moreover, the TGI in the assay on A498 renal turned out to be 3.09 µM; with BT-549 breast it was 3.45 µM; in the assay with HCT-15 colon, 2.58 µM; in the assay on K-562 leukemia it was 2.47 µM; in the assay with OVCAR-8 ovarian, 3.82 µM; in the assay on SK-MEL-28 melanoma it was 3.04 µM. For the same compound, the results for the TGI in the assay on UACC-257 melanoma and in the assay with UACC-62 melanoma were 3.09 µM and 3.35 µM, respectively.

On to `CNC(=O)c1c(NC(=O)c2ccc(C(C)(C)C)cc2)sc2c1CCC(=O)C2`, for which the GI50 in the assay with A498 renal is 0.647 µM; with BT-549 breast it was 0.352 µM; in the assay with HCT-15 colon it was 0.12 µM; in the assay on K-562 leukemia it was 0.0659 µM; in the assay on OVCAR-8 ovarian, 0.292 µM; in the assay on SK-MEL-28 melanoma, 0.506 µM. The GI50 with UACC-257 melanoma was 0.824 µM; in the assay on UACC-62 melanoma, 0.262 µM. The TGI in the assay on A498 renal is 3.62 µM; in the assay with BT-549 breast, 1.68 µM; in the assay with HCT-15 colon, 1.27 µM; in the assay with K-562 leukemia, > 100 µM; in the assay with OVCAR-8 ovarian, 3.19 µM; in the assay on SK-MEL-28 melanoma, 1.87 µM. Besides, the TGI is 3.49 µM with UACC-257 melanoma and 1.28 µM with UACC-62 melanoma.

For the compound `CCC(C)Nc1ccc(N)cc1` (centres undefined), the GI50 in the assay with A498 renal is 7.9 µM; in the assay on BT-549 breast, 6.26 µM; in the assay with HCT-15 colon it was 3.84 µM; with K-562 leukemia it was 2.36 µM; in the assay on OVCAR-8 ovarian, 4.19 µM; in the assay with SK-MEL-28 melanoma it was 6.37 µM. The GI50 with UACC-257 melanoma is 5.33 µM; in the assay with UACC-62 melanoma it was 2.91 µM. Also, the TGI with A498 renal was determined as 23.4 µM; in the assay with BT-549 breast it was 20.9 µM; in the assay on HCT-15 colon it was 15.6 µM; in the assay with K-562 leukemia it was 10.4 µM; in the assay on OVCAR-8 ovarian it was 22.2 µM; in the assay with SK-MEL-28 melanoma, 18.9 µM. The TGI came to 16.9 µM in the assay with UACC-257 melanoma and 12.5 µM in the assay on UACC-62 melanoma.

For `CC1=C(SCCC(=O)OC(C[Se]C2=C(C)C(=O)c3ccccc3C2=O)C(=O)NCCCCCC(=O)OCc2ccccc2)C(=O)c2ccccc2C1=O` (centres undefined), the GI50 in the assay with A498 renal is 11.9 µM; in the assay on BT-549 breast, 3.81 µM; in the assay with HCT-15 colon it was 6.53 µM; in the assay with K-562 leukemia, 3.04 µM; in the assay with OVCAR-8 ovarian, 4.16 µM; with SK-MEL-28 melanoma, 11.9 µM. Moreover, the GI50 in the assay with UACC-257 melanoma was 3.46 µM; in the assay on UACC-62 melanoma, 8.04 µM. Also, the TGI in the assay on A498 renal was > 100 µM; in the assay on BT-549 breast it was 12.9 µM; with HCT-15 colon, 21.3 µM; in the assay with K-562 leukemia, > 100 µM; in the assay on OVCAR-8 ovarian it was 15 µM; in the assay with SK-MEL-28 melanoma, 24.7 µM. The TGI in the assay with UACC-257 melanoma amounted to 10.1 µM; in the assay with UACC-62 melanoma it was 20.9 µM.

`COc1ncc(Nc2ncc([C@@H](C)N3CCN(S(C)(=O)=O)CC3)cc2-c2nc(C)nc(N)n2)cc1F`: the GI50 in the assay with A498 renal is < 0.01 µM; in the assay on BT-549 breast it was 0.0219 µM; in the assay with HCT-15 colon, 0.198 µM; in the assay with K-562 leukemia, 14.3 µM; in the assay on OVCAR-8 ovarian it was 2.2 µM; in the assay with SK-MEL-28 melanoma it was 0.0534 µM. Further, the GI50 was 0.0561 µM in the assay with UACC-257 melanoma and < 0.0113 µM in the assay on UACC-62 melanoma. Moreover, the TGI is 0.0309 µM in the assay with A498 renal; 6.23 µM with BT-549 breast; > 100 µM in the assay on HCT-15 colon; > 100 µM in the assay with K-562 leukemia; > 100 µM with OVCAR-8 ovarian; > 36.6 µM in the assay with SK-MEL-28 melanoma. In addition, the figures for the TGI in the assay with UACC-257 melanoma and in the assay on UACC-62 melanoma were > 79.4 µM and 1.2 µM, respectively.

Regarding `O=C(Nc1cccc(O)c1)c1ccc(NC2=C(Cl)C(=O)N(Cc3ccc(Cl)cc3Cl)C2=O)cc1`, the GI50 in the assay with A498 renal is 15 µM; in the assay with BT-549 breast, 5.7 µM; in the assay with HCT-15 colon it was 2.51 µM; in the assay on K-562 leukemia, 1.08 µM; in the assay on OVCAR-8 ovarian it was 1.95 µM; with SK-MEL-28 melanoma it was 3.41 µM. The figures for the GI50 in the assay with UACC-257 melanoma and in the assay with UACC-62 melanoma were 7.96 µM and 5.31 µM, respectively. Also, the TGI in the assay on A498 renal came out at 29.3 µM; with BT-549 breast it was 12.2 µM; in the assay with HCT-15 colon, 6.13 µM; with K-562 leukemia it was 3.96 µM; in the assay with OVCAR-8 ovarian, 4.12 µM; with SK-MEL-28 melanoma, 10.1 µM. Besides, the TGI came to 21.6 µM with UACC-257 melanoma and 9.96 µM in the assay with UACC-62 melanoma.

With `Cc1ccccc1NC(=O)c1sc2nc(C)c(C(=O)/C=C/c3ccccc3)cc2c1N`, the GI50 is 1.23 µM in the assay with A498 renal; 1.33 µM in the assay with BT-549 breast; 0.836 µM with HCT-15 colon; 0.731 µM with K-562 leukemia; 1.6 µM with OVCAR-8 ovarian; 1.26 µM in the assay on SK-MEL-28 melanoma. The GI50 with UACC-257 melanoma was 1.83 µM; in the assay on UACC-62 melanoma, 0.9 µM. For the same compound, the TGI with A498 renal is 4.27 µM; in the assay with BT-549 breast it was 5.28 µM; in the assay on HCT-15 colon, 1.94 µM; in the assay on K-562 leukemia, > 50 µM; with OVCAR-8 ovarian it was > 50 µM; in the assay on SK-MEL-28 melanoma it was 3.72 µM. Also, the TGI in the assay with UACC-257 melanoma came to 8.71 µM; with UACC-62 melanoma, 2.04 µM.

Turning to `NCCCC[C@@H]1NC(=O)[C@H](CC(=O)O)NC(=O)CNC(=O)[C@H](CCCN=C(N)N)NC(=O)[C@@H](N)CSSC[C@@H](C(=O)O)NC(=O)[C@H](CC(=O)O)NC(=O)[C@@H]2CCCN2C(=O)CNC1=O`, the GI50 in the assay with A498 renal, in the assay on BT-549 breast, in the assay on HCT-15 colon, in the assay on K-562 leukemia, with OVCAR-8 ovarian and with SK-MEL-28 melanoma was > 100 µM in each case. The GI50 with UACC-257 melanoma and in the assay on UACC-62 melanoma was > 100 µM throughout. Moreover, the TGI with A498 renal, in the assay on BT-549 breast, with HCT-15 colon, in the assay on K-562 leukemia, in the assay on OVCAR-8 ovarian and in the assay on SK-MEL-28 melanoma was > 100 µM each time. Besides, the TGI with UACC-257 melanoma and in the assay with UACC-62 melanoma was > 100 µM throughout.
